Laboratory results: patent US20060069132A1, “Azolecarboxamide herbicides” (priority 2004, published 2006)

Key:
pigweed = assay: Test B pre-/postemergence herbicide test; assay type: in vivo, Amaranthus retroflexus; conditions: for Pigweed plant response rating: postemergence
How it was run: (§1)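 Pre: seeds sown, then sprayed. Post: 1–4-leaf plants (2–18 cm) sprayed at the same time. Paddy: flooded, treated at 2-leaf stage. Formulation: non-phytotoxic solvent with surfactant. Greenhouse 13–15 days; visual 0–100 score relative to controls.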

morningglory = assay: Test B pre-/postemergence herbicide test; assay type: in vivo, Ipomoea coccinea; conditions: for Morningglory plant response rating: postemergence
How it was run: (§2)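 Visual rating, 0 (no effect) to 100 (complete control), versus untreated controls after 13–15 d in greenhouse. Pre- and postemergence applications (postemergence plants 2–18 cm, 1–4 leaves); flooded paddy arm at 2-leaf stage. Compounds in non-phytotoxic solvent plus surfactant.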

corn = assay: Test B pre-/postemergence herbicide test; assay type: in vivo, Zea mays; conditions: for Corn plant response rating: postemergence
How it was run: as §1

wild oat = assay: Test B postemergence herbicide test; assay type: in vivo, Avena fatua; conditions: postemergence
How it was run: (§3)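 After treating 2-leaf paddy plants or 2–18 cm postemergence plants (1 to 4 leaves) with formulated chemical, researchers kept them in a greenhouse for 13–15 days. Effects were judged visually versus controls: 0 indicates none, 100 total control.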

[1] = test system: small flower umbrella sedge; assay: Test B flooded paddy test; assay type: in vivo, Cyperus difformis; conditions: 1000 g ai/ha, scale 0 to 100 (0 no effect, 100 complete control)
How it was run: (§4)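 Visual ratings, 0 (no effect) to 100 (complete control), made versus controls after 13–15 d greenhouse. Paddy plants treated at 2-leaf stage; postemergence plants at 1- to 4-leaf stage, 2–18 cm tall.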

Surinam grass = assay: Test B pre-/postemergence herbicide test; assay type: in vivo, Urochloa decumbens; conditions: for Surinam Grass plant response rating: postemergence
How it was run: as §1

rice = assay: Test B flooded paddy test; assay type: in vivo, Oryza sativa; conditions: 1000 g ai/ha, scale 0 to 100 (0 no effect, 100 complete control)
How it was run: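 Plants grow to 1- to 4-leaf stage (2–18 cm) for postemergence spraying, or to 2-leaf stage for the paddy test. Formulated compound is applied. Greenhouse holding lasts 13–15 days. Response is scored visually relative to controls, 0 no effect to 100 complete control; a dash means no result.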

cocklebur = assay: Test B pre-/postemergence herbicide test; assay type: in vivo, Xanthium strumarium; conditions: for Cocklebur plant response rating: postemergence
How it was run: as §2

wheat = assay: Test B postemergence herbicide test; assay type: in vivo, Triticum aestivum; parameters: key to Wheat plant response rating: 0 = no effect, 100 = complete control; conditions: postemergence
How it was run: as §3

barnyardgrass [2] = assay: Test B flooded paddy test; assay type: in vivo, Echinochloa crus-galli; conditions: 1000 g ai/ha, scale 0 to 100 (0 no effect, 100 complete control)
How it was run: as §4

large crabgrass = assay: Test B pre-/postemergence herbicide test; assay type: in vivo, Digitaria sanguinalis; conditions: for Crabgrass, Large plant response rating: postemergence
How it was run: as §1

velvetleaf = assay: Test B pre-/postemergence herbicide test; assay type: in vivo, Abutilon theophrasti; conditions: for Velvetleaf plant response rating: postemergence
How it was run: as §1

giant foxtail = assay: Test B pre-/postemergence herbicide test; assay type: in vivo, Setaria faberi; conditions: for Foxtail, Giant plant response rating: postemergence
How it was run: as §1

barnyardgrass [3] = assay: Test B pre-/postemergence herbicide test; assay type: in vivo, Echinochloa crus-galli; conditions: for Barnyardgrass plant response rating: postemergence
How it was run: as §2

lambsquarters = assay: Test B pre-/postemergence herbicide test; assay type: in vivo, Chenopodium album; conditions: for Lambsquarters plant response rating: postemergence
How it was run: as §1

[4] = 125 g ai/ha, 0 is no effect, 100 is complete control, preemergence
[5] = 125 g ai/ha, visual rating, scale 0 (no effect) to 100 (complete control)
[6] = 500 g ai/ha, visual rating, 0 = no effect, 100 = complete control, preemergence
[7] = 500 g ai/ha, scale 0 to 100, 0 is no effect, 100 is complete control

SMILES: CCn1nc(C(C)(C)C)cc1C(=O)Nc1cccc(OC(F)F)c1 [Compound 332]
- Plant response rating (0 to 100 scale), Pigweed (pigweed; [4]): 100
- Pigweed plant response rating (pigweed; [5]): 100
- Plant response rating, Pigweed (pigweed; [6]): 100
- Pigweed plant response rating (pigweed; [7]): 100
- Plant response rating (0 to 100 scale), Morningglory (morningglory; [4]): 10
- Morningglory plant response rating (morningglory; [5]): 40
- Plant response rating, Morningglory (morningglory; [6]): 30
- Morningglory plant response rating (morningglory; [7]): 70
- Plant response rating (0 to 100 scale), Corn (corn; [4]): 0
- Corn plant response rating (corn; [5]): 0
- Plant response rating, Corn (corn; [6]): 0
- Corn plant response rating (corn; [7]): 10
- Oat, Wild plant response rating (wild oat; [5]): 40
- Oat, Wild plant response rating (wild oat; [7]): 60
- Sedge, Umbrella plant response rating [1]: 90
- Plant response rating (0 to 100 scale), Surinam Grass (Surinam grass; [4]): 10
- Surinam Grass plant response rating (Surinam grass; [5]): 20
- Plant response rating, Surinam Grass (Surinam grass; [6]): 20
- Surinam Grass plant response rating (Surinam grass; [7]): 40
- Rice plant response rating (rice): 50
- Plant response rating (0 to 100 scale), Cocklebur (cocklebur; [4]): 0
- Cocklebur plant response rating (cocklebur; [5]): 30
- Plant response rating, Cocklebur (cocklebur; [6]): 0
- Cocklebur plant response rating (cocklebur; [7]): 70
- Wheat plant response rating (wheat; [5]): 20
- Wheat plant response rating (wheat; [7]): 30
- Barnyardgrass plant response rating (barnyardgrass [2]): 60
- Plant response rating (0 to 100 scale), Crabgrass, Large (large crabgrass; [4]): 40
- Crabgrass, Large plant response rating (large crabgrass; [5]): 50
- Plant response rating, Crabgrass, Large (large crabgrass; [6]): 100
- Crabgrass, Large plant response rating (large crabgrass; [7]): 80
- Plant response rating (0 to 100 scale), Velvetleaf (velvetleaf; [4]): 30
- Velvetleaf plant response rating (velvetleaf; [5]): 60
- Velvetleaf plant response rating (velvetleaf; [7]): 90
- Plant response rating (0 to 100 scale), Foxtail, Giant (giant foxtail; [4]): 20
- Foxtail, Giant plant response rating (giant foxtail; [5]): 30
- Plant response rating, Foxtail, Giant (giant foxtail; [6]): 60
- Foxtail, Giant plant response rating (giant foxtail; [7]): 50
- Plant response rating (0 to 100 scale), Barnyardgrass (barnyardgrass [3]; [4]): 10
- Barnyardgrass plant response rating (barnyardgrass [3]; [5]): 20
- Plant response rating, Barnyardgrass (barnyardgrass [3]; [6]): 60
- Barnyardgrass plant response rating (barnyardgrass [3]; [7]): 60
- Plant response rating (0 to 100 scale), Lambsquarters (lambsquarters; [4]): 90
- Lambsquarters plant response rating (lambsquarters; [5]): 80
- Plant response rating, Lambsquarters (lambsquarters; [6]): 100
- Lambsquarters plant response rating (lambsquarters; [7]): 100
